The values below come from patent US9957271B2, “Substituted bicyclic aza-heterocycles and analogues as sirtuin modulators” (GlaxoSmithKline, LLC, priority 2012, dated 2018).

The experiment concerns the target T1, SIRT1 (Homo sapiens, UniProt Q96EB6).
T1 sequence (Q96EB6 1-747): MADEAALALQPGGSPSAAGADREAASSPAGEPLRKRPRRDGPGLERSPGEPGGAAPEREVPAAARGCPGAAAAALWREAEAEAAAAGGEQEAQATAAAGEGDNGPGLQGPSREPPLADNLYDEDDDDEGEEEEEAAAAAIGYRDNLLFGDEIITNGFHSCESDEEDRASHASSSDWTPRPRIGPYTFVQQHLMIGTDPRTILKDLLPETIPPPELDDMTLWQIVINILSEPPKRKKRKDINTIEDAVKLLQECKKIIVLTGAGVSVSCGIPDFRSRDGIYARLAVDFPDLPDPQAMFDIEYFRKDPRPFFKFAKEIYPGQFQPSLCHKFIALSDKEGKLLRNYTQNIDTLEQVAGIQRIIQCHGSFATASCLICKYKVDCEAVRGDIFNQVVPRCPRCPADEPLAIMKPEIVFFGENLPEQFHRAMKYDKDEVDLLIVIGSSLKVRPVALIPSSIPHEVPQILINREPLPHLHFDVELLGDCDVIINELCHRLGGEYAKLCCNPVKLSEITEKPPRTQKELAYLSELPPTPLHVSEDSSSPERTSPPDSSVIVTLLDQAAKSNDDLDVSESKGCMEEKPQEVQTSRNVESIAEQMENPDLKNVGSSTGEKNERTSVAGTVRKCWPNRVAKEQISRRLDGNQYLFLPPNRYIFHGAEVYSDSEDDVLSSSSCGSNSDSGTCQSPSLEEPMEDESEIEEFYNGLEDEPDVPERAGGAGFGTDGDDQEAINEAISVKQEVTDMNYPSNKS
Put plainly: Trp mass spectrometry assay of SIRT1 activity. Type of experiment: biochemical. As to conditions: Trp assay; for Trp EC1.5 (μM): concentration giving 150% activation of SIRT1; for Emax: percent maximum fold activation, read-out: Trp % Fold Act. An excerpt:
Mass spectrometry based assays were used to identify modulators of SIRT1 activity. The TAMRA based assay utilized a peptide having 20 amino acid residues as follows: Ac-EE-K(biotin)-[…](Ac)NleSTEG-K(5TMR)-EE-NH2 (SEQ ID NO: 1), wherein K(Ac) is an acetylated lysine residue and Nle is a norleucine. The peptide was labeled with the fluorophore 5TMR (excitation 540 nm/emission 580 nm) at the C-terminus. The sequence of the peptide substrate was based on p53 with several modifications. In addition, the methionine residue naturally present in the sequence was replaced with the norleucine because the methionine may be susceptible to oxidation during synthesis and purification. The Trp based assay utilized a peptide having an amino acid residues as follows: Ac-R-H-K-K(Ac)-W-NH2 (SEQ ID NO: 2).
The Trp mass spectrometry assay was conducted as follows. 0.5 μM peptide substrate and 120 μM βNAD^+ were incubated with 10 nM SIRT1 for 25 minutes at 25° C. in a reaction buffer (50 mM HEPES pH 7.5, […], 1 mM DTT, 0.05% BSA). The SIRT1 protein was obtained by cloning the SirT1 gene into a T7-promoter containing vector, which was then expressed in BL21(DE3) bacterial cells and purified as described in further detail below. Test compound was added at varying concentrations to this reaction mixture and the resulting reactions were monitored. After the 25 minute incubation with SIRT1, 10 μL of 10% formic acid was added to stop the reaction. The resulting reactions were sealed and frozen for later mass spec analysis. The relative SIRT1 activity was then determined by measuring the amount of O-acetyl-ADP-ribose (OAADPR) formed (or, alternatively, the amount of deacetylated Trp peptide generated) by the NAD-dependent sirtuin deacetylation reaction in the presence of varying concentrations of the test compound versus control reactions lacking the test compound. The degree to which the test agent activated deacetylation by SIRT1 was expressed as EC1.5 (i.e., the concentration of compound required to increase SIRT1 activity by 50% over the control lacking test compound), and Percent Maximum Activation (i.e., the maximum activity relative to control (100%) obtained for the test compound).
A control for inhibition of sirtuin activity was conducted by adding 1 μL of 500 mM nicotinamide as a negative control at the start of the reaction (e.g., permits determination of maximum sirtuin inhibition). A control for activation of sirtuin activity was conducted using 10 nM of sirtuin protein, with 1 μL of DMSO in place of compound, to determine the amount of deacetylation of the substrate at a given time point within the linear range of the assay. This time point was the same as that used for test compounds and, within the linear range, the endpoint represents a change in velocity.
For the above assay, SIRT1 protein was expressed and purified as follows. The SirT1 gene was cloned into a T7-promoter containing vector and transformed into BL21(DE3). The protein was expressed by induction with 1 mM IPTG as an N-terminal His-tag fusion protein at 18° C. overnight and harvested at 30,000×g. Cells were lysed with lysozyme in lysis buffer (50 mM Tris-HCl, 2 mM Tris[2-carboxyethyl]phosphine (TCEP), 10 μM ZnCl2, 200 mM NaCl) and further treated with sonication for […] for complete lysis. The protein was purified over a Ni-NTA column (Amersham) and fractions containing pure protein were pooled, concentrated and run over a sizing column (Sephadex S200 26/60 global). The peak containing soluble protein was collected and run on an Ion-exchange column (MonoQ). Gradient elution (200 mM-500 mM NaCl) yielded pure protein. This protein was concentrated and dialyzed against dialysis buffer (20 mM Tris-HCl, 2 mM TCEP) overnight. The protein was aliquoted and frozen at −80° C. until further use.

Regarding `CN(C)[C@H]1CCN(c2ccc3ncc(C(=O)Nc4cccnn4)n3n2)C1` [Compound 879], the “Trp EC1.5 (μM)” value is on record as “B (EC1.5 1-25 μM)” and the Emax was below 350%.

On to `Cc1nc2ccc(N3CC[C@H](N(C)C)C3)nn2c1C(=O)Nc1cccnn1` [Compound 880], for which the “Trp EC1.5 (μM)” value was “B (EC1.5 1-25 μM)” and the Emax was below 350%.

`Cc1nc2ccc(N3CC[C@H](N(C)C)C3)nn2c1C(=O)Nc1ccncn1` [Compound 881]: the “Trp EC1.5 (μM)” value is given as “C (EC1.5>25 μM)” and the Emax is below 350%.

As to `CN(C)[C@H]1CCN(c2ccc3ncc(C(=O)Nc4ccncn4)n3n2)C1` [Compound 882], the “Trp EC1.5 (μM)” value is on record as “B (EC1.5 1-25 μM)” and the Emax is below 350%.

Turning to `O=C(Nc1ccncc1F)c1cnc2ccc(-c3cccc(OC[C@H](O)CO)c3)nn12` [Compound 883], the “Trp EC1.5 (μM)” value was “A (EC1.5<1 μM)” and the Emax is below 350%.

As for `O=C(Nc1ccc(F)cn1)c1cnc2ccc(-c3cccc(OC[C@H](O)CO)c3)nn12` [Compound 884], the “Trp EC1.5 (μM)” value is on record as “B (EC1.5 1-25 μM)” and the Emax was below 350%.

As to `Cc1nc2ccc(N3CC[C@H](N(C)C)C3)nn2c1C(=O)Nc1ncccn1` [Compound 885], the “Trp EC1.5 (μM)” value is listed as “B (EC1.5 1-25 μM)” and the Emax was below 350%.

As for `CN(C)[C@H]1CCN(c2ccc3ncc(C(=O)Nc4ncccn4)n3n2)C1` [Compound 886], the “Trp EC1.5 (μM)” value is “B (EC1.5 1-25 μM)” and the Emax was below 350%.

As for `O=C(Nc1cccnn1)c1cnc2ccc(-c3cccc(OC[C@H](O)CO)c3)nn12` [Compound 887], the “Trp EC1.5 (μM)” value is “A (EC1.5<1 μM)” and the Emax was below 350%.

On to `O=C(Nc1cncnc1)c1cnc2ccc(N3CC[C@H](F)C3)nn12` [Compound 888], for which the “Trp EC1.5 (μM)” value was “C (EC1.5>25 μM)” and the Emax was below 350%.

Regarding `Cc1cncc(NC(=O)c2cnc3ccc(N4CC[C@H](F)C4)nn23)c1` [Compound 889], the “Trp EC1.5 (μM)” value is given as “B (EC1.5 1-25 μM)” and the Emax was below 350%.

`O=C(Nc1cncc(F)c1)c1cnc2ccc(N3CC[C@H](F)C3)nn12` [Compound 890]: the “Trp EC1.5 (μM)” value is “B (EC1.5 1-25 μM)” and the Emax is below 350%.

With `Cn1ccc(NC(=O)c2cnc3ccc(N4CC[C@H](F)C4)nn23)n1` [Compound 891], the “Trp EC1.5 (μM)” value was “B (EC1.5 1-25 μM)” and the Emax is at least 350%.

Regarding `Cc1nc(NC(=O)c2cnc3ccc(N4CC[C@H](F)C4)nn23)sc1C` [Compound 892], the “Trp EC1.5 (μM)” value is reported as “A (EC1.5<1 μM)” and the Emax is below 350%.

Turning to `Cc1cc(NC(=O)c2cnc3ccc(N4CC[C@H](F)C4)nn23)nc(C)n1` [Compound 893], the “Trp EC1.5 (μM)” value is reported as “C (EC1.5>25 μM)” and the Emax is below 350%.

Turning to `O=C(Nc1ccncn1)c1cnc2ccc(N3CCCC3)nn12` [Compound 894], the “Trp EC1.5 (μM)” value is “B (EC1.5 1-25 μM)” and the Emax was below 350%.

As for `O=C(Nc1cccnn1)c1cnc2ccc(N3CCCC3)nn12` [Compound 895], the “Trp EC1.5 (μM)” value is recorded as “C (EC1.5>25 μM)” and the Emax is below 350%.

Regarding `O=C(Nc1cccnc1)c1cnc2ccc(N3CCCC3)nn12` [Compound 896], the “Trp EC1.5 (μM)” value is listed as “B (EC1.5 1-25 μM)” and the Emax was below 350%.

As to `O=C(Nc1ccc(F)cn1)c1cnc2ccc(N3CCCC3)nn12` [Compound 897], the “Trp EC1.5 (μM)” value is reported as “C (EC1.5>25 μM)” and the Emax is below 350%.

Take `O=C(Nc1ccncc1F)c1cnc2ccc(N3CCCC3)nn12` [Compound 898]: the “Trp EC1.5 (μM)” value is “C (EC1.5>25 μM)” and the Emax was below 350%.

In the case of `O=C(Nc1ccc(F)cn1)c1cnc2ccc(N3CCCC(C(F)(F)F)C3)nn12` (stereo not drawn) [Compound 900], the “Trp EC1.5 (μM)” value is “A (EC1.5<1 μM)” and the Emax was below 350%.

Regarding `Cc1cncc(NC(=O)c2cnc3ccc(N4CCCC(C(F)(F)F)C4)nn23)c1` (stereo not drawn) [Compound 901], the “Trp EC1.5 (μM)” value is on record as “A (EC1.5<1 μM)” and the Emax was at least 350%.

Take `O=C(Nc1cccnn1)c1cnc2ccc(N3CCCC(C(F)(F)F)C3)nn12` (stereo not drawn) [Compound 902]: the “Trp EC1.5 (μM)” value is “A (EC1.5<1 μM)” and the Emax was at least 350%.

`O=C(Nc1ccncc1F)c1cnc2ccc(N3CCC(F)(F)C3)nn12` [Compound 903]: the “Trp EC1.5 (μM)” value is listed as “C (EC1.5>25 μM)” and the Emax was below 350%.

Consider `O=C(Nc1cccnn1)c1cnc2ccc(N3CCC(F)(F)C3)nn12` [Compound 904], for which the “Trp EC1.5 (μM)” value is reported as “B (EC1.5 1-25 μM)” and the Emax is at least 350%.

In the case of `O=C(Nc1cnccn1)c1cnc2ccc(N3CCC(F)(F)C3)nn12` [Compound 905], the “Trp EC1.5 (μM)” value is reported as “B (EC1.5 1-25 μM)” and the Emax is below 350%.

Take `O=C(Nc1ccncn1)c1cnc2ccc(N3CCC(F)(F)C3)nn12` [Compound 906]: the “Trp EC1.5 (μM)” value is “B (EC1.5 1-25 μM)” and the Emax was below 350%.

Take `O=C(Nc1ccc(F)cn1)c1cnc2ccc(N3CCC(F)(F)C3)nn12` [Compound 907]: the “Trp EC1.5 (μM)” value is “B (EC1.5 1-25 μM)” and the Emax was below 350%.

Regarding `O=C(Nc1cccnc1)c1cnc2ccc(N3CCC(F)(F)C3)nn12` [Compound 908], the “Trp EC1.5 (μM)” value is “B (EC1.5 1-25 μM)” and the Emax is below 350%.

In the case of `O=C(Nc1ccccn1)c1cnc2ccc(N3CCC(F)(F)C3)nn12` [Compound 909], the “Trp EC1.5 (μM)” value is reported as “B (EC1.5 1-25 μM)” and the Emax was at least 350%.

Turning to `O=C(Nc1cncc(F)c1)c1cnc2ccc(N3CCCC(C(F)(F)F)C3)nn12` (stereo not drawn) [Compound 910], the “Trp EC1.5 (μM)” value is on record as “A (EC1.5<1 μM)” and the Emax was at least 350%.

For the compound `CN(C)c1cccc(NC(=O)c2cnc3ccc(N4CC[C@H](F)C4)nn23)n1` [Compound 911], the “Trp EC1.5 (μM)” value is on record as “A (EC1.5<1 μM)” and the Emax is at least 350%.

Turning to `O=C(Nc1ccccn1)c1cnc2ccc(N3CC(F)(F)C3)nn12` [Compound 912], the “Trp EC1.5 (μM)” value is listed as “B (EC1.5 1-25 μM)” and the Emax was below 350%.

For `O=C(Nc1cccnc1)c1cnc2ccc(N3CC(F)(F)C3)nn12` [Compound 913], the “Trp EC1.5 (μM)” value is “B (EC1.5 1-25 μM)” and the Emax is below 350%.

As to `O=C(Nc1ccc(F)cn1)c1cnc2ccc(N3CC(F)(F)C3)nn12` [Compound 914], the “Trp EC1.5 (μM)” value is on record as “C (EC1.5>25 μM)” and the Emax is below 350%.

Take `O=C(Nc1ccncc1F)c1cnc2ccc(N3CC(F)(F)C3)nn12` [Compound 915]: the “Trp EC1.5 (μM)” value is “C (EC1.5>25 μM)” and the Emax is below 350%.
